From US20240383874A1, “BENZENE RING DERIVATIVE, AND COMPOSITION AND PHARMACEUTICAL USE THEREOF” (Xizang Haisco Pharmaceutical Co., Ltd., priority 2020, published 2024) come the findings set out here.

Where a name gives a salt, the structure may show the parent alone.

In the experiment the test system is 22RV1 cells. Nature of the experiment: Experiment 2 on inhibiting 22RV1 cell proliferation (7 days, CellTiter-Glo). The experiment is classed as cell-based. Conditions: Homo sapiens, 22Rv1, 168 h, 1% css-FBS phenol red-free medium, incubated with compound 7 days, read-out: IC50 values on proliferation inhibition of 22RV1 cells. How it is done:
Prostate cancer cells 22RV1 were purchased from ATCC, the cell medium was RPMI 1640+10% FBS, and the cells were cultured in an incubator at 37° C. under 5% CO2. On day 1, the cells in an exponential phase were collected. With a 1% css-FBS phenol red-free medium, the cell suspension was adjusted to a corresponding concentration, plated at 2000 cells/well and incubated overnight. On day 2, compounds at different concentrations were added, and the plate was placed in the incubator and incubated for further 7 days. After the incubation was completed, according to operation instructions for a CellTiter-Glo kit (Promega, G7573), 50 μL of CTG solution, which was already pre-melted and equilibrated to room temperature, was added to each well, and the mixtures were uniformly mixed for 2 min using a microplate shaker. The plate was placed at room temperature for 10 min, and then fluorescence signal values were measured using a microplate reader (PHERAstar FSX). The results were processed according to formula (2), the survival rate of the compound at different concentrations was calculated, and the IC50 value of the compound with a survival rate of 50% was calculated using origin9.2 software with DoseResp function, wherein RLU compound was the readout of the treated group, and RLU control was the average value of the DMSO vehicle control group.
In the case of `CC(C)(c1ccc(OCc2ccnc(N3CCN(C4CN(C5CCN(c6ccc7c(c6)C(=O)N(C6CCC(=O)NC6=O)C7=O)C5)C4)CC3)n2)cc1)c1cc(Cl)cc(C#N)c1` (stereo not shown) [Compound 55 trifluoroacetate, 3-chloro-5-(2-(4-((2-(4-(1-(1-(2-(2,6-dioxopiperidin-3-yl)-1,3-dioxoisoindolin-5-yl)pyrrolidin-3-yl)azetidin-3-yl)piperazin-1-yl)pyrimidin-4-yl)methoxy)phenyl)propan-2-yl)benzonitrile], the IC50 was found to be 0.519 µM.
For the compound `CC(C)(c1ccc(OCc2ccnc(N3CCN(C4CN(CC5CCN(c6ccc7c(c6)C(=O)N(C6CCC(=O)NC6=O)C7=O)CC5)C4)CC3)n2)cc1)c1cc(Cl)cc(C#N)c1` (stereo not shown) [Compound 56 trifluoroacetate, 3-chloro-5-(2-(4-((2-(4-(1-((1-(2-(2,6-dioxopiperidin-3-yl)-1,3-dioxoisoindolin-5-yl)piperidin-4-yl)methyl)azetidin-3-yl)piperazin-1-yl)pyrimidin-4-yl)methoxy)phenyl)propan-2-yl)benzonitrile], the IC50 amounted to 0.716 µM.
Take `CC(C)(c1ccc(OCc2ccnc(N3CCN(C4CN(CC5CN(c6ccc7c(c6)C(=O)N(C6CCC(=O)NC6=O)C7=O)C5)C4)CC3)n2)cc1)c1cc(Cl)cc(C#N)c1` (stereo not shown) [Compound 57 trifluoroacetate, 3-chloro-5-(2-(4-((2-(4-(1-((1-(2-(2,6-dioxopiperidin-3-yl)-1,3-dioxoisoindolin-5-yl)azetidin-3-yl)methyl)azetidin-3-yl)piperazin-1-yl)pyrimidin-4-yl)methoxy)phenyl)propan-2-yl)benzonitrile]: the IC50 was 0.687 µM.
For the compound `CC(C)(c1ccc(OCc2ccnc(N3CCN(C4CN(CC5CCN(c6ccc7c(c6)C(=O)N(C6CCC(=O)NC6=O)C7=O)C5)C4)CC3)n2)cc1)c1cc(Cl)cc(C#N)c1` (stereo not shown) [Compound 58 trifluoroacetate, 3-chloro-5-(2-(4-((2-(4-(1-((1-(2-(2,6-dioxopiperidin-3-yl)-1,3-dioxoisoindolin-5-yl)pyrrolidin-3-yl)methyl)azetidin-3-yl)piperazin-1-yl)pyrimidin-4-yl)methoxy)phenyl)propan-2-yl)benzonitrile], the IC50 was 0.744 µM.
To `CC(C)(c1ccc(OCc2ccnc(N3CCN(C4CC5(CCN(C6CC7(CCN(c8ccc9c(c8)C(=O)N(C8CCC(=O)NC8=O)C9=O)CC7)C6)CC5)C4)CC3)n2)cc1)c1cc(Cl)cc(C#N)c1` (stereo not shown) [Compound 59 trifluoroacetate, 3-chloro-5-(2-(4-((2-(4-(7-(2-(2,6-dioxopiperidin-3-yl)-1,3-dioxoisoindolin-5-yl)-7,7′-diaza[2,7′-bispiro[3.5]nonan]-2′-yl)piperazin-1-yl)pyrimidin-4-yl)methoxy)phenyl)propan-2-yl)benzonitrile] belongs 0.647 µM.
As to `CC(C)(c1ccc(OCc2ccnc(N3CCN(C4CC5(CCN(CC6CCN(c7ccc8c(c7)C(=O)N(C7CCC(=O)NC7=O)C8=O)CC6)CC5)C4)CC3)n2)cc1)c1cc(Cl)cc(C#N)c1` (stereo not shown) [Compound 60 trifluoroacetate, 3-chloro-5-(2-(4-((2-(4-(7-((1-(2-(2,6-dioxopiperidin-3-yl)-1,3-dioxoisoindolin-5-yl)piperidin-4-yl)methyl)-7-azaspiro[3.5]nonan-2-yl)piperazin-1-yl)pyrimidin-4-yl)methoxy)phenyl)propan-2-yl)benzonitrile], the IC50 turned out to be 0.866 µM.
As for `CC(C)(c1ccc(OCc2ccnc(N3CCN(C4CCN(CC5CN(c6ccc7c(c6)C(=O)N(C6CCC(=O)NC6=O)C7=O)C5)C4)CC3)n2)cc1)c1cc(Cl)cc(C#N)c1` (stereo not shown) [Compound 61 trifluoroacetate, 3-chloro-5-(2-(4-((2-(4-(1-((1-(2-(2,6-dioxopiperidin-3-yl)-1,3-dioxoisoindolin-5-yl)azetidin-3-yl)methyl)pyrrolidin-3-yl)piperazin-1-yl)pyrimidin-4-yl)methoxy)phenyl)propan-2-yl)benzonitrile], the IC50 came out at 0.632 µM.
To `CC(C)(c1ccc(OCc2ccnc(N3CCN(C4CCN(CC5CCN(c6ccc7c(c6)C(=O)N(C6CCC(=O)NC6=O)C7=O)C5)C4)CC3)n2)cc1)c1cc(Cl)cc(C#N)c1` (stereo not shown) [Compound 62 trifluoroacetate, 3-chloro-5-(2-(4-((2-(4-(1-((1-(2-(2,6-dioxopiperidin-3-yl)-1,3-dioxoisoindolin-5-yl)pyrrolidin-3-yl)methyl)pyrrolidin-3-yl)piperazin-1-yl)pyrimidin-4-yl)methoxy)phenyl)propan-2-yl)benzonitrile] belongs 0.735 µM.
With `CC(C)(c1ccc(OCc2ccnc(N3CCN(C4CCN(CC5CCN(c6ccc7c(c6)C(=O)N(C6CCC(=O)NC6=O)C7=O)CC5)C4)CC3)n2)cc1)c1cc(Cl)cc(C#N)c1` (stereo not shown) [Compound 63 trifluoroacetate, 3-chloro-5-(2-(4-((2-(4-(1-((1-(2-(2,6-dioxopiperidin-3-yl)-1,3-dioxoisoindolin-5-yl)piperidin-4-yl)methyl)pyrrolidin-3-yl)piperazin-1-yl)pyrimidin-4-yl)methoxy)phenyl)propan-2-yl)benzonitrile], the IC50 is 0.593 µM.
With `CC(C)(c1ccc(OCc2ccnc(N3CCC(N4CC(N5CCN(c6ccc7c(c6)C(=O)N(C6CCC(=O)NC6=O)C7=O)CC5)C4)CC3)n2)cc1)c1cc(Cl)cc(C#N)c1` (stereo not shown) [Compound 64 trifluoroacetate, 3-chloro-5-(2-(4-((2-(4-(3-(4-(2-(2,6-dioxopiperidin-3-yl)-1,3-dioxoisoindolin-5-yl)piperazin-1-yl)azetidin-1-yl)piperidin-1-yl)pyrimidin-4-yl)methoxy)phenyl)propan-2-yl)benzonitrile], the IC50 came out at 0.637 µM.
Turning to `CC(C)(c1ccc(OCc2ccnc(N3CCC(N4CC(CN5CCN(c6cccc7c6C(=O)N(C6CCC(=O)NC6=O)C7=O)CC5)C4)CC3)n2)cc1)c1cc(Cl)cc(C#N)c1` (stereo not shown) [Compound 65 trifluoroacetate, 3-chloro-5-(2-(4-((2-(4-(3-((4-(2-(2,6-dioxopiperidin-3-yl)-1,3-dioxoisoindolin-4-yl)piperazin-1-yl)methyl)azetidin-1-yl)piperidin-1-yl)pyrimidin-4-yl)methoxy)phenyl)propan-2-yl)benzonitrile], the IC50 is 0.759 µM.
To `CC(C)(c1ccc(OCc2ccnc(N3CCN(CC4CCN(C5CC6(CCN(c7ccc8c(c7)C(=O)N(C7CCC(=O)NC7=O)C8=O)CC6)C5)C4)CC3)n2)cc1)c1cc(Cl)cc(C#N)c1` (stereo not shown) [Compound 66 trifluoroacetate, 3-chloro-5-(2-(4-((2-(4-((1-(7-(2-(2,6-dioxopiperidin-3-yl)-1,3-dioxoisoindolin-5-yl)-7-azaspiro[3.5]nonan-2-yl)pyrrolidin-3-yl)methyl)piperazin-1-yl)pyrimidin-4-yl)methoxy)phenyl)propan-2-yl)benzonitrile] belongs 0.584 µM; to `CC(C)(c1ccc(OCc2ccnc(N3CCN(CC4CCN(C5CCCN(c6ccc7c(c6)C(=O)N(C6CCC(=O)NC6=O)C7=O)C5)C4)CC3)n2)cc1)c1cc(Cl)cc(C#N)c1` (stereo not shown) [Compound 67 trifluoroacetate, 3-chloro-5-(2-(4-((2-(4-((1-(1-(2-(2,6-dioxopiperidin-3-yl)-1,3-dioxoisoindolin-5-yl)piperidin-3-yl)pyrrolidin-3-yl)methyl)piperazin-1-yl)pyrimidin-4-yl)methoxy)phenyl)propan-2-yl)benzonitrile], 0.643 µM.
